Test results published in patent US20230053540A1, “TREATMENT OF LIVER INJURY” (Massachusetts Institute of Technology, priority 2019, published 2023).

System: hepatocytes
Experiment: Seq-Well scRNA-Seq of hepatocytes after APAP overdose (signature scores, DEG vs untreated)
Type: in vivo, mouse
Conditions: A6 vs UT

CC(=O)Nc1ccc(O)cc1 [APAP, acetaminophen]
Ddc avg_logFC: −0.3608
Ddc pct.1: 0.241
Ddt avg_logFC: −0.5222
Ddx3x avg_logFC: 0.6569
Ddx3y A6logFC: 0.3395
Ddx5 avg_logFC: 0.5229
Ddx6 avg_logFC: 0.4443
Ddx6 pct.1: 0.527
Ddx21 avg_logFC: 0.7314
Ddx27 A6logFC: 0.2522
Ddx27 avg_logFC: 0.2522
Ddx27 pct.1: 0.286
Deb1 A6logFC: −0.267
Deb1 avg_logFC: −0.267
Deb1 pct.1: 0.274
Dera A6logFC: −0.2674
Dera avg_logFC: −0.2674
Dera pct.1: 0.32
Derl2 A6logFC: −0.3317
Dgkd avg_logFC: 0.3708
Dgkd pct.1: 0.282
Dhrs3 avg_logFC: −0.4676
Dhrs3 pct.1: 0.198
Dhrs4 A6logFC: −0.3321
Diap1 A6logFC: 0.3259
Diap1 avg_logFC: 0.3259
Diap1 pct.1: 0.382
Dio1 avg_logFC: −0.5453
Dio1 pct.1: 0.253
Dkc1 avg_logFC: 0.3258
Dkc1 pct.1: 0.315
Dnaja2 A6logFC: 0.3723
Dnajc5 A6logFC: 0.3265
Dnajc19 A6logFC: −0.316
Dot1l avg_logFC: 0.397
Dot1l pct.1: 0.282
Dsp A6logFC: 0.2655
Dsp avg_logFC: 0.2655
Dsp pct.1: 0.32
Dst avg_logFC: 0.511
Dst pct.1: 0.43
Dusp5 avg_logFC: 0.2964
Dusp6 avg_logFC: 0.5916
Dusp16 avg_logFC: 0.4605
Dusp16 pct.1: 0.372
Dync1h1 A6logFC: 0.3796
Eaf1 avg_logFC: 0.5218
Eaf1 pct.1: 0.427
Ebpl avg_logFC: −0.4503
Ebpl pct.1: 0.196
Eea1 A6logFC: 0.2612
Eea1 avg_logFC: 0.2612
Eea1 pct.1: 0.363
Efhd2 avg_logFC: 0.5838
Egr1 avg_logFC: 0.5846
Egr1 pct.1: 0.589
Eif1a avg_logFC: 0.7953
Eif3a avg_logFC: 0.3147
Eif3a pct.1: 0.542
Eif4a1 A6logFC: 0.2519
Eif4a1 avg_logFC: 0.2519
Eif4a1 pct.1: 0.418
Eif4b A6logFC: 0.3682
Eif4ebp1 A6logFC: 0.2617
Eif4ebp1 avg_logFC: 0.2617
Eif4ebp1 pct.1: 0.387
Eif4g1 avg_logFC: 0.3749
Eif4g1 pct.1: 0.723
Eif4g2 avg_logFC: 0.5597
Eifia A6logFC: 0.3147
Eifib A6logFC: 0.2503
Eific A6logFC: 0.302
Ell2 avg_logFC: 0.4172
Ell2 pct.1: 0.535
Elovl3 avg_logFC: −0.5067
Elovl3 pct.1: 0.568
Elovl5 A6logFC: 0.3352
Elovl5 avg_logFC: 0.3352
Elovl5 pct.1: 0.63
Epas1 avg_logFC: 0.7758
Epb4.1 avg_logFC: 0.5628
Epb4.1 pct.1: 0.537
Erf3b avg_logFC: 0.2503
Erf3b pct.1: 0.449
Errfi1 avg_logFC: 0.3937
Errfi1 pct.1: 0.943
Etnppl avg_logFC: 0.4182
Etnppl pct.1: 0.706
Ets2 avg_logFC: 0.6956
Fabp1 avg_logFC: −1.016
Fabp2 avg_logFC: −0.6156
Fam25c A6logFC: −0.2977
Fam107b avg_logFC: 0.4633
Fam107b pct.1: 0.449
Fam134b avg_logFC: 0.8936
Fam195a A6logFC: −0.2649
Fam214a A6logFC: −0.2658
Fbxo21 A6logFC: −0.2631
Fcgr3 avg_logFC: 0.3082
Fcgr3 pct.1: 0.107
Fdps A6logFC: −0.2663
Fdx1 avg_logFC: −0.6234
Fga avg_logFC: 0.6934
Fgb avg_logFC: 0.6469
Fgg avg_logFC: 0.6153
Fitm1 avg_logFC: −0.3242
Fitm1 pct.1: 0.012
Fkbp5 avg_logFC: 0.5161
Fndc3b avg_logFC: 0.4096
Fndc3b pct.1: 0.315
Fpgs avg_logFC: −0.3494
Fpgs pct.1: 0.146
Ftsj3 A6logFC: 0.2552
Ftsj3 avg_logFC: 0.2552
Ftsj3 pct.1: 0.346
Furin avg_logFC: 0.2536
Furin pct.1: 0.477
Fus A6logFC: 0.3393
Fxyd1 avg_logFC: −0.4799
Fxyd1 pct.1: 0.432
Fxyd5 avg_logFC: 0.2743
G6pc avg_logFC: −0.9601
Gabarap avg_logFC: −0.4425
Gabarap pct.1: 0.518
Gadd45a A6logFC: 0.2829
Gadd45a avg_logFC: 0.2829
Gadd45a pct.1: 0.251
Gadd45gip1 A6logFC: −0.3041
Gamt avg_logFC: −0.5603
Gars A6logFC: 0.2576
Gars avg_logFC: 0.2576
Gars pct.1: 0.334
Gcat A6logFC: −0.2587
Gcat avg_logFC: −0.2587
Gcat pct.1: 0.315
Gcgr A6logFC: −0.2576
Gcgr avg_logFC: −0.2576
Gcgr pct.1: 0.446
Gch1 avg_logFC: −0.2691
Gch1 pct.1: 0.461
Gclc avg_logFC: 1.903
Gclm avg_logFC: 0.2699
Gclm pct.1: 0.695
Gcnt2 avg_logFC: 0.5375
Gda A6logFC: 0.2663
Gda avg_logFC: 0.2663
Gda pct.1: 0.243
Gfra1 avg_logFC: 0.3864
Gfra1 pct.1: 0.599
Gjb2 avg_logFC: 0.6082
Gldc A6logFC: 0.2802
Gldc avg_logFC: 0.2802
Gldc pct.1: 0.465
Glo1 avg_logFC: −0.4066
Glo1 pct.1: 0.513
Glyat avg_logFC: −0.6477
Glyctk A6logFC: 0.2977
Gm4952 avg_logFC: −0.4987
Gm4952 pct.1: 0.198
Gm5424 A6logFC: 0.2698
Gm5424 avg_logFC: 0.2698
Gm5424 pct.1: 0.411
Gm13775 avg_logFC: −1.066
Gm15564 avg_logFC: 1.443
Gm20594 A6logFC: 0.2957
Gm23388 avg_logFC: 0.4162
Gm23388 pct.1: 0.222
Gm23935 avg_logFC: 0.4242
Gm23935 pct.1: 0.878
Gm24187 avg_logFC: 0.4319
Gm24187 pct.1: 0.2
Gm24601 avg_logFC: 0.4684
Gm26917 avg_logFC: 0.6012
Gm26917 pct.1: 0.382
Gm26924 avg_logFC: 1.161
Gn13 avg_logFC: 0.576
Gnai2 A6logFC: 0.2817
Gnai2 avg_logFC: 0.2817
Gnai2 pct.1: 0.391
Gnas A6logFC: 0.2589
Gnas avg_logFC: 0.2589
Gnas pct.1: 0.79
Gne avg_logFC: −0.4251
Gne pct.1: 0.263
Gnl2 avg_logFC: 0.3905
Gnl2 pct.1: 0.384
Gnmt avg_logFC: −0.3334
Gnmt pct.1: 0.962
Golga4 avg_logFC: 0.3521
Gpt2 avg_logFC: 0.5391
Gpx1 avg_logFC: −0.7686
Grn avg_logFC: 0.5408
Gsk3b avg_logFC: 0.4065
Gsk3b pct.1: 0.384
Gsr A6logFC: 0.4128
Gsta1 avg_logFC: 0.4076
Gstk1 A6logFC: −0.2828
Gstk1 avg_logFC: −0.2828
Gstk1 pct.1: 0.351
Gstm3 avg_logFC: −0.4111
Gstm3 pct.1: 0.265
Gstz1 avg_logFC: −0.4641
